We go through four compounds from ChEMBL document CHEMBL5465560, “Selectivity Literature for EUbOPEN Chemogenomic Library” (2024).

Assay [1] has as its target T1, Ephrin type-B receptor 4 (Homo sapiens) (UniProt P54760).
T1 sequence (whole entry): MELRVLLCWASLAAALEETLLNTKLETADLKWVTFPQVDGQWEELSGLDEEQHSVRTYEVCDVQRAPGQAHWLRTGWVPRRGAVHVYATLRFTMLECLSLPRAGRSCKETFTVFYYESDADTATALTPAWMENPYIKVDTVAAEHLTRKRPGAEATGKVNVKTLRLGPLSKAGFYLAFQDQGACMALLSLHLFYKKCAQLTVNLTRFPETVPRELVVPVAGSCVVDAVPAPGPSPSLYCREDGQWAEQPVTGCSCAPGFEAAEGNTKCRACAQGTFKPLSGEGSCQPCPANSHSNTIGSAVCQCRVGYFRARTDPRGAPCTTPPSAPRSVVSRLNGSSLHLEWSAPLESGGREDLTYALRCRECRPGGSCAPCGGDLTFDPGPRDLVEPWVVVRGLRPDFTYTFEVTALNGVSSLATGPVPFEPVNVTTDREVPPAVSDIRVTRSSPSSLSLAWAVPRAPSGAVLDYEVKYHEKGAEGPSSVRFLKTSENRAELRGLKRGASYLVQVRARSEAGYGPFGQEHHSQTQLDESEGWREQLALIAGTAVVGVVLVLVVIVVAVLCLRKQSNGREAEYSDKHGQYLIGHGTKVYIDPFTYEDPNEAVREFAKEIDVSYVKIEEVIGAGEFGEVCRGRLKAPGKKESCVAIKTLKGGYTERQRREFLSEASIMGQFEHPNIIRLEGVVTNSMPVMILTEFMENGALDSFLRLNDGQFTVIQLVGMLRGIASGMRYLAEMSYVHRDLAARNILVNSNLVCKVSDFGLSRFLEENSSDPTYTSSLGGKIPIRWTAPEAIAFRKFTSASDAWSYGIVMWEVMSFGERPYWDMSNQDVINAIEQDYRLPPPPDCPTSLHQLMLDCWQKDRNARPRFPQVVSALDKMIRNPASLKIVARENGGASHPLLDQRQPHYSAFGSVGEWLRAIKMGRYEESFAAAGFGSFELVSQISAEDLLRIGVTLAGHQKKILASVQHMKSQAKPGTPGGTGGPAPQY
Put plainly: Selectivity interaction (Kinase screening (Nanosyn)) EUB0000604a EPHB4.

For assay [2], the target named is T2, Megakaryocyte-associated tyrosine-protein kinase (Homo sapiens) (UniProt P42679).
T2 sequence (whole entry): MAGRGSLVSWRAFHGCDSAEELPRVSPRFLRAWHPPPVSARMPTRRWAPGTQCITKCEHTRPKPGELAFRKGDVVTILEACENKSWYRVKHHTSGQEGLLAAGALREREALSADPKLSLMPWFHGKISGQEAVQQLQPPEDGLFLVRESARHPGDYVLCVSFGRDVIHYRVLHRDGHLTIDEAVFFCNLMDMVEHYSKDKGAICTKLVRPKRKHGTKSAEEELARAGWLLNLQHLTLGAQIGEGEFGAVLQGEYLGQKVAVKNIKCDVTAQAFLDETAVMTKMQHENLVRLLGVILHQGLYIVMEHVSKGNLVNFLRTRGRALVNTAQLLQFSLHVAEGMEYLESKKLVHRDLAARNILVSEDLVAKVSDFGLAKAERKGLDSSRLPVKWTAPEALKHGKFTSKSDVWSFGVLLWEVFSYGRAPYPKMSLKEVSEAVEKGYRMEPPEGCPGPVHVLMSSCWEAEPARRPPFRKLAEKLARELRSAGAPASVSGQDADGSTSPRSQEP
Put plainly: Selectivity interaction (KinomeScan (DiscoverX)) EUB0000655a MATK. The note with it: at 10 µM.

Assay [3] has as its target T3, NUAK family SNF1-like kinase 1 (Homo sapiens) (UniProt O60285).
T3 sequence (whole entry): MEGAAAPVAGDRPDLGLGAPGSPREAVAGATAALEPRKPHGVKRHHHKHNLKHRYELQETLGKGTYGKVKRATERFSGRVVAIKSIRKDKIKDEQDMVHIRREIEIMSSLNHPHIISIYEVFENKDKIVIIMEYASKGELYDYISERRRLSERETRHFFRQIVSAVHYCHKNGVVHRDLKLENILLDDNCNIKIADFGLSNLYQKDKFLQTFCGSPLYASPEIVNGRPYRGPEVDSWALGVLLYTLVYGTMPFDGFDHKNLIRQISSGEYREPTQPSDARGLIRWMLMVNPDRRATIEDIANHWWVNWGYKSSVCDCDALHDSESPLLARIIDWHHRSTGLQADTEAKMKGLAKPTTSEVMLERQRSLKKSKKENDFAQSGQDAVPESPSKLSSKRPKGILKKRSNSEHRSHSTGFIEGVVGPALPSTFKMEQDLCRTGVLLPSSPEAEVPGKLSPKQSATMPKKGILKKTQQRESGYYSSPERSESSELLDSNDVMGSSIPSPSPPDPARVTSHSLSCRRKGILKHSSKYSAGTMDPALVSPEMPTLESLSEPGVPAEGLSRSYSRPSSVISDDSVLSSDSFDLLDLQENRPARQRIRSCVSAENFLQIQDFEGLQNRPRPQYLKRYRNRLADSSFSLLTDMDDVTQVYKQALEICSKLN
Put plainly: Selectivity interaction (KinomeScan (DiscoverX)) EUB0000618a NUAK1. The note with it: at 10 µM.

In assay [4] the test system is eIF-2-alpha kinase GCN2 (Homo sapiens), Q9P2K8 [S808G]. Put plainly: Selectivity interaction (KinomeScan (DiscoverX)) EUB0000618a EIF2AK4. The following applies: at 10 µM.
Assay [5] concerns the target T4, Ankyrin repeat and protein kinase domain-containing protein 1 (Homo sapiens) (UniProt Q8NFD2).
T4 sequence (whole entry): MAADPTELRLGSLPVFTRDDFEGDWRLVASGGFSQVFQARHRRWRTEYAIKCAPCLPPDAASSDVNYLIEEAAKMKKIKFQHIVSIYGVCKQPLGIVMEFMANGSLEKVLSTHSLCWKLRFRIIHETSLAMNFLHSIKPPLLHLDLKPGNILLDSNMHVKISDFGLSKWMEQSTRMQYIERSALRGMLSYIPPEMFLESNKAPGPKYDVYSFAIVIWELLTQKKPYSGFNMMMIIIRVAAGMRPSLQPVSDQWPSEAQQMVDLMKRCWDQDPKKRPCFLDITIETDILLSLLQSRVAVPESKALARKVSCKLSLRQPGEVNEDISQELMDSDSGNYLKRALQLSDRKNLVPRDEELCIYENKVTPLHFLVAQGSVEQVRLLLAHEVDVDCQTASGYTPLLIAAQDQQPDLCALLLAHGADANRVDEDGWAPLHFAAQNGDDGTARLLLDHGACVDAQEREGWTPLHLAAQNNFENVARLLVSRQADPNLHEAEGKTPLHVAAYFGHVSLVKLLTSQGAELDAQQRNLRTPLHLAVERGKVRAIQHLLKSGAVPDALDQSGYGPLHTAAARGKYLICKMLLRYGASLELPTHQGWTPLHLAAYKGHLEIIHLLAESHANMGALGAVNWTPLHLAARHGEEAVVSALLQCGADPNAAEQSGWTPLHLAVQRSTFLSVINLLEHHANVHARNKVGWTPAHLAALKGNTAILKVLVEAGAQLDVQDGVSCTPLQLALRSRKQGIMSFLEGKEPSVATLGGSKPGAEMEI
In words: Selectivity interaction (KinomeScan (DiscoverX)) EUB0001079a ANKK1. The following applies: at 1 µM.

SMILES strings stand for the structures.

Chain of eIF-2-alpha kinase GCN2 (Homo sapiens), Q9P2K8 [S808G] (Q9P2K8 whole entry S808G, the tested form may be a part): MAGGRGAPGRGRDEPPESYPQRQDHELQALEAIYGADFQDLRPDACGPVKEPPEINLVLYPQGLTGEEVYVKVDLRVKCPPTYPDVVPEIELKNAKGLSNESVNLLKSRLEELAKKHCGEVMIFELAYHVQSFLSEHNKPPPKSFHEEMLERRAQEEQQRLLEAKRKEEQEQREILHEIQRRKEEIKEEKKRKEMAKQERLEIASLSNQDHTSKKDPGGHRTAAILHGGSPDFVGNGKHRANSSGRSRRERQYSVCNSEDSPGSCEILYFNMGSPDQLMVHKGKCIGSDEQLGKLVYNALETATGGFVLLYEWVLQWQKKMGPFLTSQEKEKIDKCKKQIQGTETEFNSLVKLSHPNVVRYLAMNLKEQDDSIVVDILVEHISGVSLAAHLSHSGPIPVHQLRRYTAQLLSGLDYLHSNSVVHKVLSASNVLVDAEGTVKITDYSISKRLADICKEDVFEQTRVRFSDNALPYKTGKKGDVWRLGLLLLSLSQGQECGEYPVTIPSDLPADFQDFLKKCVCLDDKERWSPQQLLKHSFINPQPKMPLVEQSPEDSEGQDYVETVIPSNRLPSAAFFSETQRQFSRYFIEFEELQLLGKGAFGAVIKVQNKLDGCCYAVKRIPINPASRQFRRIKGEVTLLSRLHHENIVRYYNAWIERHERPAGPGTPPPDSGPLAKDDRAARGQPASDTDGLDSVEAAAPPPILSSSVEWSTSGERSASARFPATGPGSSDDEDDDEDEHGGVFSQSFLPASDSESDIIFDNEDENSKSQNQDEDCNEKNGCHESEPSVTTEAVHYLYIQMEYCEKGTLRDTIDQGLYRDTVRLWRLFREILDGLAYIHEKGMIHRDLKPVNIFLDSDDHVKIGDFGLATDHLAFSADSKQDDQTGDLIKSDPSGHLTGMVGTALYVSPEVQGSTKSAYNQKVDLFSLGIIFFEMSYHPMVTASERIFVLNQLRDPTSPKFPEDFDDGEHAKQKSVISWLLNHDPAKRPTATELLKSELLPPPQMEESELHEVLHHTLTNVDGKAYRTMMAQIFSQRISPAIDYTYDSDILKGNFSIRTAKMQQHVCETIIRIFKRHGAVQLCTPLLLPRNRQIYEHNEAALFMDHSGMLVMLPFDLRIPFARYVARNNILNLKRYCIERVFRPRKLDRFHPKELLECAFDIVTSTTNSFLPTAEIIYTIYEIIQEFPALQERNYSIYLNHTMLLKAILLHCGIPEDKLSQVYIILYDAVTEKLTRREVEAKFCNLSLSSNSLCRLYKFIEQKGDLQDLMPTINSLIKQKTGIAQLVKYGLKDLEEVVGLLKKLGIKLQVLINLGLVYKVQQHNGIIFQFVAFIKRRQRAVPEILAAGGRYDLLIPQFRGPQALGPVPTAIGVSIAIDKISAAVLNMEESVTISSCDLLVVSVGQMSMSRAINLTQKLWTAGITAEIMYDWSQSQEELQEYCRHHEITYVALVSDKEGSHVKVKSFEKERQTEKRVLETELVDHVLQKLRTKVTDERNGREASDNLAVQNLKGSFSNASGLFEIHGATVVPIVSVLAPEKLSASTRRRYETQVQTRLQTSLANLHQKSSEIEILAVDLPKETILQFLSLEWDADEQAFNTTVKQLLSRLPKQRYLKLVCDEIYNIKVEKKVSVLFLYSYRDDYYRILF

Consider `Cc1cnc(Nc2ccc(F)cc2Cl)nc1-c1c[nH]c(C(=O)N[C@H](CO)c2cccc(Cl)c2)c1`, for which, in assay [1], the % of inhibition turned out to be 0%.

`CN(C)CCOc1ccc(-c2nc(-c3ccncc3)c(-c3ccc4c(c3)CC/C4=N\O)[nH]2)cc1` had a % of control in assay [2] of 100%.

As to `O[C@H]1CC[C@H](Nc2ncc3nc(Nc4c(F)cc(F)cc4F)n([C@H]4CCOC4)c3n2)CC1`, the % of control came out at 97% in assay [3] and 100% in assay [4].

In turn, `Nc1cnc(N2CCc3cc(S(=O)(=O)Nc4c(F)cc(Cl)cc4F)cc(N4CCCC4=O)c32)nc1` [TP-020n] yielded a % of control in assay [5] of 100%.
